In patent US11447466B2, “Substituted indole compounds useful as inhibitors of TLR7/8/9” (BRISTOL-MYERS SQUIBB COMPANY, priority 2017, dated 2022):

Legend:
human TLR7 = biological target: T1, human TLR7 (Homo sapiens, UniProt Q9NYK1); assay: TLR7 inhibition reporter assay (HEK-Blue SEAP reporter, gardiquimod stimulation); assay type: cell-based; settings: HEK-Blue cells overexpressing human TLR7, SEAP reporter, gardiquimod 7.5 μM, 22 hour incubation
T1 construct: host or cells: HEK-Blue cells
T1 sequence (Q9NYK1 27-1049): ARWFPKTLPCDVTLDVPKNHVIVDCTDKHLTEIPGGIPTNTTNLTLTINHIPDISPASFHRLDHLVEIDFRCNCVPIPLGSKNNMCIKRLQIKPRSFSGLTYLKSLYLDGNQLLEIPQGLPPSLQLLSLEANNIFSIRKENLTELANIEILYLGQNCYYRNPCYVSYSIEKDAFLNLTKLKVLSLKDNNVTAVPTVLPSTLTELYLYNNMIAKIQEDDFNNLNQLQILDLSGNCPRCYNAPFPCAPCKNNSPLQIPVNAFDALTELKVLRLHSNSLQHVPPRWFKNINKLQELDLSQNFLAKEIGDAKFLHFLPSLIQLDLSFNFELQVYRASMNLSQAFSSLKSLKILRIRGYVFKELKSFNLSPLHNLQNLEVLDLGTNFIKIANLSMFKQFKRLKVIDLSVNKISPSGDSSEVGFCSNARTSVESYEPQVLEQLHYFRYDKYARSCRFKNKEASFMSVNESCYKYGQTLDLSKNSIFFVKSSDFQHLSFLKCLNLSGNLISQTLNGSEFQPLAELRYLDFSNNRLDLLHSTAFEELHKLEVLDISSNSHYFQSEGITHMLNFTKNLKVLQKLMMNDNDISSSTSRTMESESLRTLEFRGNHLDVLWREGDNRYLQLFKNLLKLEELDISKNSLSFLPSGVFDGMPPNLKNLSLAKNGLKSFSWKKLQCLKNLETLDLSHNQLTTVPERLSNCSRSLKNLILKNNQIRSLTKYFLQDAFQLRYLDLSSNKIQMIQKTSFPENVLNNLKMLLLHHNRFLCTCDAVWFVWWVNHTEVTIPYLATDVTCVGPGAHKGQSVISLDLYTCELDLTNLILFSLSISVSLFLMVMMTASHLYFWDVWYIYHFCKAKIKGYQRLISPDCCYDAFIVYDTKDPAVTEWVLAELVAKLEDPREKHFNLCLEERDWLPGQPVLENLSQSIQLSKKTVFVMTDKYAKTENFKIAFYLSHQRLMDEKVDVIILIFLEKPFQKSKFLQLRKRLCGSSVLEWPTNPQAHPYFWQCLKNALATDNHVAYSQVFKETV
Description: (§1) TLR7/8/9 Inhibition Reporter Assays
(§2) HEK-Blue™-cells (Invivogen) overexpressing human TLR7, TLR8 or TLR9 receptors were used for screening inhibitors of these receptors using an inducible SEAP (secreted embryonic alkaline phosphatase) reporter gene under the control of the IFN-β minimal promoter fused to five NF-κB and AP-1-binding sites. Briefly, cells are seeded into Greiner 384 well plates (15000 cells per well for TLR7, 20,000 for TLR8 and 25,000 for TLR9) and then treated with test compounds in DMSO to yield a final dose response concentration range of 0.05 nM-50 μM. After a 30 minute compound pre-treatment at room temperature, the cells are then stimulated with a TLR7 ligand (gardiquimod at a final concentration of 7.5 μM), TLR8 ligand (R848 at a final concentration of 15.9 μM) or TLR9 ligand (ODN2006 at a final concentration of 5 nM) to activate NF-κB and AP-1 which induce the production of SEAP. After a 22 hour incubation at 37° C., 5% CO2, SEAP levels are determined with the addition of HEK-Blue™ Detection reagent (Invivogen), a cell culture medium that allows for detection of SEAP, according to manufacturer's specifications. The percent inhibition is determined as the % reduction in the HEK-Blue signal present in wells treated with agonist plus DMSO alone compared to wells treated with a known inhibitor.

human TLR8 = biological target: T2, human TLR8 (Homo sapiens, UniProt Q9NR97); assay: TLR8 inhibition reporter assay (HEK-Blue SEAP reporter, R848 stimulation); assay type: cell-based; settings: HEK-Blue cells overexpressing human TLR8, SEAP reporter, R848 15.9 μM, 22 hour incubation
T2 construct: host or cells: HEK-Blue cells
T2 sequence (Q9NR97 27-1041): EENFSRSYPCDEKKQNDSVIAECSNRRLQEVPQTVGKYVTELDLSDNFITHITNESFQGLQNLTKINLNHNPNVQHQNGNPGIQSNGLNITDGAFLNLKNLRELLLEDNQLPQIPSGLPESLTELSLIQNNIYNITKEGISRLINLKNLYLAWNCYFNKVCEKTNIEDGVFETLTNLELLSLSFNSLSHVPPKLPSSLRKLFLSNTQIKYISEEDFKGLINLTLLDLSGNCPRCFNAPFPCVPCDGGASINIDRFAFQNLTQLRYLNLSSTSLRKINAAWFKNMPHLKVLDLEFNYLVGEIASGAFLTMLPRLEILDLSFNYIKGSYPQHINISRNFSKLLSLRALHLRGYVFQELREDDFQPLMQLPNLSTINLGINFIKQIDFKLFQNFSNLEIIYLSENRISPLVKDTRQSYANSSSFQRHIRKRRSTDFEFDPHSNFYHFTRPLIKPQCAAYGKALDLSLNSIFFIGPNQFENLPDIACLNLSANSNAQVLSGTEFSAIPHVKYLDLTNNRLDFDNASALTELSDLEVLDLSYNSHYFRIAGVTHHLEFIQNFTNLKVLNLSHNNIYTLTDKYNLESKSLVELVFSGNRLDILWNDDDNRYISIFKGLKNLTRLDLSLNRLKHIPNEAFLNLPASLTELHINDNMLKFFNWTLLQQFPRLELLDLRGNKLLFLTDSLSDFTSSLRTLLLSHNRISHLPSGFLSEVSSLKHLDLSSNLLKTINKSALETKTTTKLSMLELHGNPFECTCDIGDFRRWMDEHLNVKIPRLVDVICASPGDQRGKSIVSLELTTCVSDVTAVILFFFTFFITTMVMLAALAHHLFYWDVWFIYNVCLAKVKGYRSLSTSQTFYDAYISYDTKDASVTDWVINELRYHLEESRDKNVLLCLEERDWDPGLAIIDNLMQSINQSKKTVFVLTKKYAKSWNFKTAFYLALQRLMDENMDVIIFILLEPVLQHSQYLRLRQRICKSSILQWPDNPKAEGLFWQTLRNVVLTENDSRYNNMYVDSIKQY
Description: as §1, §2

Row | SMILES | IC50 (human TLR7) | IC50 (human TLR8)
1 | Cc1cc(-c2[nH]c3ccc(C4CCN(C(=O)C5(N)CC5)CC4)cc3c2C(C)C)cn(C)c1=O [Example 272, 5-(5-(1-(1-aminocyclopropanecarbonyl)piperidin-4-yl)-3-isopropyl-1H-indol-2-yl)-1,3-dimethylpyridin-2(1H)-one] | 7.9 nM | 53 nM
2 | Cc1cc(-c2[nH]c3ccc(C4CCN(C(=O)[C@H]5C[C@H](O)CN5)CC4)cc3c2C(C)C)cn(C)c1=O [Example 292, 5-(5-(1-((2R,4S)-4-hydroxypyrrolidine-2-carbonyl)piperidin-4-yl)-3-isopropyl-1H-indol-2-yl)-1,3-dimethylpyridin-2(1H)-one] | 7.2 nM | 40.7 nM
3 | CCCN1CCC(c2ccc3[nH]c(-c4cc(-c5cncnc5)c(=O)n(C)c4)c(C(C)C)c3c2)CC1 [Example 249, 5-(3-isopropyl-5-(1-propylpiperidin-4-yl)-1H-indol-2-yl)-1-methyl-3-(pyrimidin-5-yl)pyridin-2(1H)-one] | 14.1 nM | 1.1 nM
4 | Cc1cc(-c2[nH]c3ccc(C4CCN(CCC(C(F)(F)F)C(F)(F)F)CC4)cc3c2C(C)C)cn(C)c1=O [Example 88, 5-(3-isopropyl-5-(1-(4,4,4-trifluoro-3-(trifluoromethyl)butyl)piperidin-4-yl)-1H-indol-2-yl)-1,3-dimethylpyridin-2(1H)-one] | 67.5 nM | 53.2 nM
5 | Cc1cc(-c2[nH]c3ccc(C4CCN(C(=O)[C@H]5C[C@H](O)CN5)CC4)cc3c2C(C)C)cn(C)c1=O [Example 288, 5-(5-(1-((2R,4S)-4-hydroxypyrrolidine-2-carbonyl)piperidin-4-yl)-3-isopropyl-1H-indol-2-yl)-1,3-dimethylpyridin-2(1H)-one] | 17.4 nM | 61.7 nM
6 | Cc1cc(-c2[nH]c3ccc(C4CCN(C(=O)[C@@H]5C[C@@H](O)CN5)CC4)cc3c2C(C)C)cn(C)c1=O [Example 290, 5-(5-(1-((2S,4R)-4-hydroxypyrrolidine-2-carbonyl)piperidin-4-yl)-3-isopropyl-1H-indol-2-yl)-1,3-dimethylpyridin-2(1H)-one] | 8.3 nM | 
7 | Cc1cc(-c2[nH]c3ccc(C4CCN(CC(C)(C)O)CC4)cc3c2C(C)C)cn(Cc2ccccc2)c1=O [Example 329, 1-benzyl-5-(5-(1-(2-hydroxy-2-methylpropyl)piperidin-4-yl)-3-isopropyl-1H-indol-2-yl)-3-methylpyridin-2(1H)-one] | 15.8 nM | 32.4 nM
8 | CC(C)c1c(-c2cc(-c3ccccc3)c(=O)n(C)c2)[nH]c2ccc(C3CCNCC3)cc12 [Example 53, 5-(3-isopropyl-5-(piperidin-4-yl)-1H-indol-2-yl)-1-methyl-3-phenylpyridin-2(1H)-one] | 11.4 nM | 10.3 nM
9 | Cc1cc(-c2[nH]c3ccc(C4CCN(C5CCC(C(C)C)CC5)CC4)cc3c2C(C)C)cn(C)c1=O (stereo not shown) [Example 233, 5-(3-isopropyl-5-(1-(4-isopropylcyclohexyl)piperidin-4-yl)-1H-indol-2-yl)-1,3-dimethylpyridin-2(1H)-one] | 57.7 nM | 97 nM
10 | CCn1nc(-c2[nH]c3ccc(C4CCNCC4)cc3c2C(C)C)c(C)c(C)c1=O [Example 27, 2-ethyl-6-(3-isopropyl-5-(piperidin-4-yl)-1H-indol-2-yl)-4,5-dimethylpyridazin-3(2H)-one] | 165 nM | 18.5 nM
11 | Cc1cc(-c2[nH]c3ccc(C4CCN(C5CCC(C(C)C)CC5)CC4)cc3c2C(C)C)cn(C)c1=O (stereo not shown) [Example 234, 5-(3-isopropyl-5-(1-(4-isopropylcyclohexyl)piperidin-4-yl)-1H-indol-2-yl)-1,3-dimethylpyridin-2(1H)-one] | 40.2 nM | 52.3 nM
12 | Cc1cc(-c2[nH]c3ccc(C4CCN(C(=O)[C@@H]5C[C@@H](O)CN5)CC4)cc3c2C(C)C)cn(C)c1=O [Example 293, 5-(5-(1-((2S,4R)-4-hydroxypyrrolidine-2-carbonyl)piperidin-4-yl)-3-isopropyl-1H-indol-2-yl)-1,3-dimethylpyridin-2(1H)-one] | 21.6 nM | 
